Where two headings read alike, the source gives them in different places.
Experiments:
[1] = test system: L6 cells (rat skeletal myoblasts); experiment: cells; details: L6, read-out: Cyt L6 IC50
[2] = test system: Plasmodium falciparum, strain NF54, erythrocytic stages; experiment: microbe, parasite or virus in culture
[3] = test system: Trypanosoma brucei rhodesiense, STIB 900 strain, bloodstream forms; experiment: microbe, parasite or virus in culture
[4] = test system: Plasmodium falciparum, strain NF54, erythrocytic stages
[5] = test system: Trypanosoma brucei rhodesiense, STIB 900 strain, bloodstream forms
[6] = test system: L6 cells (rat skeletal myoblasts); details: read-out: Cyt L6 IC50
[7] = NF54, read-out: P. falc. pIC50 (converted)
[8] = read-out: T. b. rhod. pIC50 (converted)

| Compound | IC50 ([2]; NF54, read-out: P. falc. IC50) | IC50 [2, 7] | IC50 ([3]; read-out: T. b. rhod. IC50) | IC50 [3, 8] | P. falc. pIC50 [4] | IC50 [1] | P. falc. pIC50 ([4]; pIC50 = -log10 IC50 (M), P. falciparum NF54) | SI (P. falc.) ([4]; ratio IC50 in L6 cells/IC50 in P. falciparum NF54) | IC50 ([4]; read-out: P. falc. IC50, P. falciparum strain NF54, erythrocytic stages) | T. b. rhod. pIC50 [5] | SI (T. b. rhod.) ([5]; ratio IC50 in L6 cells/IC50 in T. b. rhodesiense STIB900) | IC50 ([5]; read-out: T. b. rhod. IC50) | IC50 [6] |
| --- | --- | --- | --- | --- | --- | --- | --- | --- | --- | --- | --- | --- | --- |
| CC1=C(Cc2ccccc2)C(=O)c2ccccc2C1=O [Compound 2a, 2-Benzyl-3-methyl-1,4-naphthoquinone] | 358 nM | 355 nM | 62800 nM | 63100 nM | – | 45000 nM | – | – | – | – | – | – | – |
| O=C1C(Cc2ccc(C(F)(F)F)cc2)=C(C(F)(F)F)C(=O)c2ccccc21 [Compound 5b, 2-(Trifluoromethyl)-3-{[4-(trifluoromethyl)phenyl]methyl}-1,4-naphthoquinone] | 1460 nM | 1450 nM | 1960 nM | 1950 nM | – | 2000 nM | – | – | – | – | – | – | – |
| O=C1C=C(Cc2ccc(C(F)(F)F)cc2)C(=O)c2ccccc21 [Compound 4b, 2-{[4-(Trifluoromethyl)phenyl]methyl}-1,4-naphthoquinone] | 686 nM | 692 nM | 503 nM | 501 nM | – | 19200 nM | – | – | – | – | – | – | – |
| CC1=C(Cc2cccc(NC(=O)CCC(F)(F)F)c2)C(=O)c2ccccc2C1=O [Compound 2o, 2-Methyl-3-{[3-(4,4,4-trifluorobutanamido)phenyl]methyl}-1,4-naphthoquinone] | 670 nM | 631 nM | 50800 nM | 51300 nM | 6.17 | 87500 nM | – | – | – | – | – | – | – |
| O=C1C=C(Cc2ccc(F)cc2C(F)(F)F)C(=O)c2ccccc21 [Compound 4d, 2-{[4-Fluoro-2-(trifluoromethyl)phenyl]methyl}-1,4-naphthoquinone] | 2310 nM | 2290 nM | 1740 nM | 1740 nM | – | 38400 nM | – | – | – | – | – | – | – |
| CC1=C(Cc2cccc(NC(=O)C(F)(F)F)c2)C(=O)c2ccccc2C1=O [Compound 2m, 2-Methyl-3-{[3-(2,2,2-trifluoroacetamido)phenyl]methyl}-1,4-naphthoquinone] | 321 nM | 324 nM | 24300 nM | 24000 nM | – | 13700 nM | – | – | – | – | – | – | – |
| CC1=C(Cc2ccc(NC(=O)C(F)(F)F)cc2)C(=O)c2ccccc2C1=O [Compound 2l, 2-Methyl-3-{[4-(2,2,2-trifluoroacetamido)phenyl]methyl}-1,4-naphthoquinone] | 147 nM | 148 nM | 23400 nM | 23400 nM | – | 16100 nM | – | – | – | – | – | – | – |
| O=C1C(Cc2ccc(C(F)(F)F)cc2F)=C(C(F)(F)F)C(=O)c2ccccc21 [Compound 5c, 2-{[2-Fluoro-4-(trifluoromethyl)phenyl]methyl}-3-(trifluoromethyl)-1,4-naphthoquinone] | 2310 nM | 2290 nM | 9410 nM | 9330 nM | – | 805 nM | – | – | – | – | – | – | – |
| O=C1C=C(Cc2ccc(C(F)(F)F)cc2F)C(=O)c2ccccc21 [Compound 4c, 2-{[2-Fluoro-4-(trifluoromethyl)phenyl]methyl}-1,4-naphthoquinone] | 1760 nM | 1780 nM | 790 nM | 794 nM | – | 37000 nM | – | – | – | – | – | – | – |
| Nc1nc(N)nc(Nc2ccc([As]3SCC(CO)S3)cc2)n1 (centres unmarked) [Mel., melarsoprol, reference compound] | – | – | 6 nM | 6.03 nM | – | 24200 nM | – | – | – | – | – | – | – |
| COc1cc([C@@H]2c3cc4c(cc3[C@H](O)[C@H]3COC(=O)[C@H]23)OCO4)cc(OC)c1OC [Pod., podophyllotoxin, reference compound] | – | – | – | – | – | 24 nM | – | – | – | – | – | – | – |
| CC1=C(Cc2cccc(OC(F)(F)F)c2)C(=O)c2ccccc2C1=O [Compound 2r, 2-Methyl-3-{[3-(trifluoromethoxy)phenyl]methyl}-1,4-naphthoquinone] | 49 nM | 49 nM | 26100 nM | 26300 nM | – | 80500 nM | – | – | – | – | – | – | – |
| O=C1C=C(Cc2ccc(Cl)nc2)C(=O)c2ccccc21 [Compound 4e, 2-[(6-Chloropyridin-3-yl)methyl]-1,4-naphthoquinone] | 2010 nM | 2000 nM | 522 nM | 525 nM | – | 3940 nM | – | – | – | – | – | – | – |
| CC(=O)Nc1cccc(CC2=C(C)C(=O)c3ccccc3C2=O)c1 [Compound 2k, 2-[(3-Acetamidophenyl)methyl]-3-methyl-1,4-naphthoquinone] | 758 nM | 759 nM | 39500 nM | 39800 nM | – | 16600 nM | – | – | – | – | – | – | – |
| CC1=C(Cc2ccc([N+](=O)[O-])cc2)C(=O)c2ccccc2C1=O [Compound 2g, 2-Methyl-3-[(4-nitrophenyl)methyl]-1,4-naphthoquinone] | 111 nM | 110 nM | 28000 nM | 28200 nM | – | 19100 nM | – | – | – | – | – | – | – |
| CC(=O)Nc1ccc(CC2=C(C)C(=O)c3ccccc3C2=O)cc1 [Compound 2j, 2-[(4-Acetamidophenyl)methyl]-3-methyl-1,4-naphthoquinone] | 695 nM | 692 nM | 28900 nM | 28800 nM | – | 16300 nM | – | – | – | – | – | – | – |
| 2-Methyl-2-{[4-(4,4,4-trifluorobutanamido)phenyl]methyl}-1,4-naphthoquinone [Compound 2n] | – | – | – | – | – | – | 6.80 | 92 | 159 nM | 4.14 | 0 | 72200 nM | 14700 nM |
| O=C1C(Cc2ccccc2)=C(C(F)(F)F)C(=O)c2ccccc21 [Compound 5a, 2-Benzyl-3-(trifluoromethyl)-1,4-naphthoquinone] | 3800 nM | 3800 nM | 1880 nM | 1910 nM | – | 10800 nM | – | – | – | – | – | – | – |
| O=C1C=C(Cc2ccccc2)C(=O)c2ccccc21 [Compound 4a, 2-Benzyl-1,4-naphthoquinone] | 2760 nM | 2750 nM | 318 nM | 316 nM | – | 61600 nM | – | – | – | – | – | – | – |

Second part, led by results:

| IC50 ([2]; NF54, read-out: P. falc. IC50) | IC50 [2, 7] | IC50 ([3]; read-out: T. b. rhod. IC50) | IC50 [3, 8] | P. falc. pIC50 [4] | Compound | IC50 [1] | P. falc. pIC50 ([4]; pIC50 = -log10 IC50 (M), P. falciparum NF54) | SI (P. falc.) ([4]; ratio IC50 in L6 cells/IC50 in P. falciparum NF54) | IC50 ([4]; read-out: P. falc. IC50, P. falciparum strain NF54, erythrocytic stages) | T. b. rhod. pIC50 [5] | SI (T. b. rhod.) ([5]; ratio IC50 in L6 cells/IC50 in T. b. rhodesiense STIB900) | IC50 ([5]; read-out: T. b. rhod. IC50) | IC50 [6] |
| --- | --- | --- | --- | --- | --- | --- | --- | --- | --- | --- | --- | --- | --- |
| 3 nM | 3.02 nM | – | – | – | CCN(CC)CCCC(C)Nc1ccnc2cc(Cl)ccc12 (centres unmarked) [Chl., chloroquine, reference compound] | 91100 nM | – | – | – | – | – | – | – |
| 20 nM | 20 nM | 23200 nM | 23400 nM | – | CC1=C(Cc2ccc(F)cc2C(F)(F)F)C(=O)c2ccccc2C1=O [Compound 2d, 2-{[4-Fluoro-2-(trifluoromethyl)phenyl]methyl}-3-methyl-1,4-naphthoquinone] | 62300 nM | – | – | – | – | – | – | – |
| 43 nM | 42.7 nM | 33200 nM | 33100 nM | – | CC1=C(Cc2ccc(F)cc2)C(=O)c2ccccc2C1=O [Compound 2p, 2-[(4-Fluorophenyl)methyl]-3-methyl-1,4-naphthoquinone] | 51100 nM | – | – | – | – | – | – | – |
| 29 nM | 28.8 nM | 81600 nM | 81300 nM | – | CC1=C(Cc2ccc(OC(F)(F)F)cc2)C(=O)c2ccccc2C1=O [Compound 2q, 2-Methyl-3-{[4-(trifluoromethoxy)phenyl]methyl}-1,4-naphthoquinone] | 123000 nM | – | – | – | – | – | – | – |
| 22 nM | 21.4 nM | 25500 nM | 25700 nM | – | CC1=C(Cc2ccc([N+](=O)[O-])cc2F)C(=O)c2ccccc2C1=O [Compound 2h, 2-[(2-Fluoro-4-nitrophenyl)methyl]-3-methyl-1,4-naphthoquinone] | 17400 nM | – | – | – | – | – | – | – |
| 37 nM | 37.2 nM | 8270 nM | 8320 nM | – | CC1=C(Cc2ccc(Cl)nc2)C(=O)c2ccccc2C1=O [Compound 2f, 2-[(6-Chloropyridin-3-yl)methyl]-3-methyl-1,4-naphthoquinone] | 24200 nM | – | – | – | – | – | – | – |
| 38 nM | 38 nM | 75800 nM | 75900 nM | – | CC1=C(Cc2cc(OC(F)(F)F)ccc2F)C(=O)c2ccccc2C1=O [Compound 2s, 2-{[2-Fluoro-5-(trifluoromethoxy)phenyl]methyl}-3-methyl-1,4-naphthoquinone] | 83200 nM | – | – | – | – | – | – | – |
| 44 nM | 44.7 nM | 30400 nM | 30200 nM | – | CC1=C(Cc2cc(F)c(F)cc2F)C(=O)c2ccccc2C1=O [Compound 2i, 2-Methyl-3-[(2,4,5-trifluorophenyl)methyl]-1,4-naphthoquinone] | 54500 nM | – | – | – | – | – | – | – |
| 11 nM | 11.5 nM | 81400 nM | 81300 nM | – | CC1=C(Cc2ccc(C(F)(F)F)cc2F)C(=O)c2ccccc2C1=O [Compound 2c, 2-{[2-Fluoro-4-(trifluoromethyl)phenyl]methyl}-3-methyl-1,4-naphthoquinone] | 61700 nM | – | – | – | – | – | – | – |
| 6 nM | 5.75 nM | 93000 nM | 93300 nM | – | CC1=C(Cc2cc(C(F)(F)F)ccc2F)C(=O)c2ccccc2C1=O [Compound 2e, 2-{[2-Fluoro-5-(trifluoromethyl)phenyl]methyl}-3-methyl-1,4-naphthoquinone] | 43000 nM | – | – | – | – | – | – | – |

Reference: article PMC11900971 (International Journal of Molecular Sciences, 2025)
